Reference: patent publication US7342137B1, “Cyclohexenone compounds from Antrodia camphorata and application thereof” (Golden Biotechnology Corporation, priority 2007, dated 2008)

Tests used:
[1] = test system: human hepatic cancer cells, Hep 3B; assay: In vitro Lovastatin add-on study (MTT), Hep 3B; assay type: cell-based; conditions: 0.0043 μg/ml Lovastatin 72 hours, 0 μg/ml formula 2
Protocol: (§1) The experiment was also carried out according to NCI anti-cancer drug screen in vitro model. The human hepatic cancer cells, Hep 3B and Hep G2 and MDA-MB-231 were separately cultivated in media containing fetal calf serum for 24 hours. The proliferated cells were washed once with PBS, then treated with 1× trypsin-EDTA and centrifuged at 1200 rpm for 5 minutes. The supernatant was discarded and the cell pellet was resuspended in 10 ml of fresh culture medium by gently shaking. The Hep 3B cells were treated with 0.0043 μg/ml of Lovastatin for 72 hours and Hep G2 cells were treated with 0.0017 μg/ml of Taxol for 72 hours before placing in a 96-well plate. 4-hydroxy-2,3-dimethoxy-6-methyl-5(3,7,11-trimethyl-dodeca-2,6,10-trienyl)-cyclohex-2-enone obtained from example 1 were added respectively into each of the 96 wells at the following concentrations: 0 μg/ml (the control group); 30, 10, 3, 1, 0.3, 0.1 and 0.03 μg/ml (the experiment group). The cells were incubated at 37° C. in a 5% CO2 incubator for 48 hours. MTT was added in a concentration of 2.5 mg/ml into each well in dark and reacted for 4 hours, followed by the addition of 100 μl of lysis buffer to stop the reaction. The plates were read on an ELISA reader at wavelength of 570 nm to determine the survival rates.

[2] = test system: Human low density lipoprotein (LDL); assay: In vitro antioxidant activity study (Cu2+-induced LDL oxidation, diene formation); assay type: biochemical; conditions: for Tlag: LDL oxidised with 5 μM CuSO4; for Capacity values: capacity value 1 = 2 μM Trolox; for ΔTlag: difference between Tlag and Tlag0 (H2O)
Protocol: Human low density lipoprotein (LDL) oxidated with copper ion (Cu^2+) has been widely employed to assess antioxidant activities of samples to be assayed. Antioxidant activity of a sample is determined by the diene contents of LDL after oxidation and expressed in Trolox equivalents by using a standard curve calculated from the water-soluble vitamin E analogue Trolox standards (the antioxidant capacity value of 1 is expressed in terms of 2 μM of Trolox).
The following solutions were prepared firstly: double distilled water (the negative control group), 5 mM sodium phosphate buffer (SPB), 1 μM and 2 μM Trolox solution (the positive control group), and 40 μg/ml 4-hydroxy-2,3-dimethoxy-6-methyl-5(3,7,11-trimethyl-dodeca-2,6,10-trienyl)-cyclohex-2-enone isolated from example 1. The concentration of LDL cholesterol (LDL-C) was determined using enzyme reaction method, which was diluted to 0.1-0.25 mg/ml with 5 mM SPB. One hundred μl of the LDL was added into each well of a 96-well quartz plate, followed by addition of the abovementioned Trolox and the isolated compound from example 1. Standardized oxidizing agent CuSO4 was supplemented to induce oxidation at a final concentration of 5 μM in each 250 μl well. The plate was read on an ELISA reader at wavelength of 232 nm at 37 °C for 12 hours. The sampling time was 15 min.

[3] = test system: human prostate cancer cells, LNCaP; assay: In vitro Taxol add-on study (MTT), prostate cancer cells LNCaP; assay type: cell-based; conditions: LNCaP (0.0017 μg/ml Taxol) as printed in Table 6; 0 μg/ml formula 2
Protocol: as §1, with “human prostate” for “human hepatic”, “cells, LNCaP” for “cells, Hep 3B”, “and DU-145” for “and Hep G2 and MDA-MB-231”, “The LNCaP cells were treated with 0.0017 μg/ml of Taxol for 72 hours and DU-145” for “The Hep 3B”, “0.0043” for “0.0043 μg/ml of Lovastatin for 72 hours and Hep G2 cells were treated with 0.0017”

[4] = test system: human breast-cancer cells, MDA-MB-231; assay: In vitro Taxol add-on study (MTT), MDA-MB-231; assay type: cell-based; conditions: 0.0017 μg/ml Taxol 72 hours, 0 μg/ml formula 2
Protocol: as §1, with “breast-cancer” for “hepatic cancer”, “MCF-7” for “Hep 3B and Hep G2”, “The” for “The Hep 3B”, “placed” for “treated with 0.0043 μg/ml of Lovastatin for 72 hours and Hep G2 cells were treated with 0.0017 μg/ml of Taxol for 72 hours before placing”, “plate after 0.0017 μg/ml Taxol was added and treated for 72 hours.” for “plate.”, “terminate” for “stop”

[5] = test system: human hepatic cancer cells, Hep G2; assay: In vitro Taxol add-on study (MTT), Hep G2; assay type: cell-based; conditions: 0.0017 μg/ml Taxol 72 hours, 0 μg/ml formula 2
Protocol: as §1

[6] = test system: human breast-cancer cells, MCF-7; assay: In vitro Taxol add-on study (MTT), MCF-7; assay type: cell-based; conditions: 0.0017 μg/ml Taxol 72 hours, 0 μg/ml formula 2
Protocol: as §1, with “breast-cancer” for “hepatic cancer”, “MCF-7” for “Hep 3B and Hep G2”, “The” for “The Hep 3B”, “placed” for “treated with 0.0043 μg/ml of Lovastatin for 72 hours and Hep G2 cells were treated with 0.0017 μg/ml of Taxol for 72 hours before placing”, “plate after 0.0017 μg/ml Taxol was added and treated for 72 hours.” for “plate.”, “terminate” for “stop”

[7] = test system: human prostate cancer cells, DU-145; assay: In vitro Taxol add-on study (MTT), prostate cancer cells DU-145; assay type: cell-based; conditions: DU-145 (0.0043 μg/ml Taxol) as printed in Table 6; 0 μg/ml formula 2
Protocol: as §1, with “human prostate” for “human hepatic”, “cells, LNCaP” for “cells, Hep 3B”, “and DU-145” for “and Hep G2 and MDA-MB-231”, “The LNCaP cells were treated with 0.0017 μg/ml of Taxol for 72 hours and DU-145” for “The Hep 3B”, “0.0043” for “0.0043 μg/ml of Lovastatin for 72 hours and Hep G2 cells were treated with 0.0017”

CC[C@H](C)C(=O)O[C@H]1C[C@@H](C)C=C2C=C[C@H](C)[C@H](CC[C@@H]3C[C@@H](O)CC(=O)O3)[C@H]21 [Lovastatin, reference compound]
Cell survival rate (%) [1]: 61 ± 3%

Cc1c(C)c2c(c(C)c1O)CCC(C)(C(=O)O)O2 (stereo not drawn) [Trolox]
Tlag ([2]; 1 μM Trolox): 266 min
Capacity values ([2]; 1 μM Trolox): 0.48
ΔTlag ([2]; 1 μM Trolox): 81 min
Tlag ([2]; 2 μM Trolox): 344 min
Capacity values ([2]; 2 μM Trolox): 1.00
ΔTlag ([2]; 2 μM Trolox): 159 min

CC(=O)O[C@H]1C(=O)[C@@]2(C)[C@H]([C@H](OC(=O)c3ccccc3)[C@]3(O)C[C@H](OC(=O)[C@H](O)[C@@H](NC(=O)c4ccccc4)c4ccccc4)C(C)=C1C3(C)C)[C@]1(OC(C)=O)CO[C@@H]1C[C@@H]2O [Taxol, reference compound]
Cell survival rate (%) [3]: 56 ± 3%
Cell survival rate (%) [4]: 76 ± 3%
Cell survival rate (%) [5]: 81 ± 2%
Cell survival rate (%) [6]: 65 ± 1%
Cell survival rate (%) [7]: 70 ± 2%
